# Laboratory results as given in PMC12112476, “Mass Spectrometric ITEM-FOUR Analysis Reveals Coding Single-Nucleotide Polymorphisms in Human Cardiac Troponin T That Evade Detection by Sandwich ELISAs Which Use Monoclonal Antibodies M7 and M11.7 from the Elecsys Troponin T® Assay” (International Journal of Molecular Sciences, 2025).
# Key:
# Type in all cases: binding
# [1] = tested on: monoclonal anti-hcTnT antibody M11.7; assay: ITEM-FOUR nano-ESI mass spectrometry: in-solution immune complex formation and gas-phase dissociation of M11.7 antibody–epitope peptide complexes; settings: for in-solution immune complex formation with M11.7 (binding in words): nano-ESI-MS, 200 mM ammonium acetate pH 6.7
# Method: (§1) Immune complex-containing solutions of a wild-type epitope peptide and its corresponding antibody, e.g., P11 and M7, were prepared by mixing the two components in 200 mM ammonium acetate buffer (pH 6.7), ensuring a molar excess of the epitope peptide over the antibody to achieve binding saturation. After an incubation period of one hour, the entire mixture (~3 µL) was loaded into a nano-ESI emitter and electrosprayed. The mass spectrometer was configured to transmit only ion signals with m/z values above 3850, effectively eliminating signals from the unbound peptide (Figure 1A).
# (§2) Antibody–peptide mixture solutions were prepared for ITEM FOUR experiments by mixing 5 µL of one antibody working solution with one assigned peptide working solution to generate antibody to peptide molar ratios of 1:2.1 for all solutions that contained the M7 antibody. For mixture solutions containing the M11.7 or the anti-TNFα antibody, 1:13 molar ratios were prepared. Antibodies were incubated together with peptides for at least one hour at room temperature prior to analysis.
# (§3) Data acquisition for ITEM-FOUR experiments was performed as described in [18] with the Synapt G2S mass spectrometer (Waters MS-Technologies, Wilmslow, UK) and with the following instrumental settings: source temperature, 40 °C; capillary voltage, 1.0–1.3 kV; sample cone voltage, 130 V; source offset voltage, 130 V; trap gas flow (argon), 8.0 mL/min; helium gas: 20 bar. All mass spectra were acquired in positive-ion mode applying a mass window of m/z 200–8000. The quadrupole analyzer was used to block transmission of lower-molecular-mass ions: M1 = 5000 with dwell time of 25% and ramp time of 25%; M2 = 5000 with dwell time of 25% and ramp time of 25%; M3 = 5000. ΔCV in the TRAP collision cell was increased stepwise as follows: 0, 2, 6, 10, 14, 18, 22, 26, 30, 34, 40, 46, 52 and 58 V. The ion mobility separation mode was not used. All acquired scans during a given collision cell voltage difference setting were integrated to obtain an averaged spectrum from which ion intensities were extracted for ITEM-FOUR calculations. Data were acquired and processed with MassLynx software version 4.1 (Waters MS-Technologies). For exact time stamps of all measurements, refer to Table S2 in the Supplement (see also the deposited raw data supplement in the PRIDE directory). All mass spectra for each ΔCV setting were smoothed using the Savitzky-Golay method. Spectra of antibody solutions and antibody–peptide mixture solutions were smoothed using 30 cycles with a 15-mass unit window at the high mass end and at the low mass end with 3 cycles and a 2-mass unit window. All measurements were recorded in duplicate. The mass spectrometric raw data have been deposited via the ProteomeXchange Consortium in the PRIDE partner repository with the dataset identifier PXD058812 [70].
# (§4) The Origin Pro 2023b (64-bit, OriginLab Corporation, Northampton, MA, USA) software package with an automation script for processing multiple datasets was used to graphically plot the extracted intensities of the ion signals of all relevant molecular entities (the immune complex with two bound peptides, the immune complex with one bound peptide, free antibodies, and free peptides) against their corresponding charge state for each collision cell voltage difference (ΔCV). Subsequently, Gaussian curve fittings were performed separately for each molecular entity. […] Iterations were performed for R2 values to be at least 0.91. Apices of Gaussian curves provided the intensities and the average m/z values for each molecular species. Intensity values of individual molecular entities (educts and products) were summed and normalized. Normalized intensities of educts and products from duplicate measurements were averaged.
# (§5) The number of atoms from rituximab was used because the amino acid sequences of neither the M7 nor the M11.7 antibody were disclosed. […]
# [2] = tested on: monoclonal anti-hcTnT antibody M7; assay: ITEM-FOUR nano-ESI mass spectrometry: in-solution immune complex formation and gas-phase dissociation of M7 antibody–epitope peptide complexes; settings: for in-solution immune complex formation with M7 (binding in words): nano-ESI-MS, 200 mM ammonium acetate pH 6.7, peptide:antibody 2.1:1 (epitope series) or 13:1 (negative controls); for dx (V): Boltzmann curve parameter; for dx (V) / ΔCV50 (V) / Slope (%/V): peptide:antibody 2.1:1; for dx (V) / ΔCV50 (V) / Final (%) / Initial (%) / Slope (%/V): averaged from two acquisitions; for KD m0g# [Ø]: apparent gas-phase dissociation constant, dimensionless number, extrapolated to ambient temperature; for Binding Type: class by difference of normalized product ion intensities over ΔCV; for ΔCV50 (V): collision cell voltage difference for 50% dissociation, Boltzmann fit; for Final (%): normalized product ion quantity at highest applied ΔCV, peptide:antibody 2.1:1, 200 mM ammonium acetate pH 6.7; for Initial (%): normalized product ion quantity at lowest applied ΔCV, peptide:antibody 2.1:1, 200 mM ammonium acetate pH 6.7, at least 1 h RT, nano-ESI, ΔCV 0-58 V; for ΔGm0g# / Tamb ΔSm0g# / ΔHm0g#: pseudo thermodynamic value of gas-phase complex dissociation; for ΔGm0g#: Ellingham diagram read at Tamb; for Tamb ΔSm0g# / ΔHm0g#: extrapolated to Tamb; for Slope (%/V): slope of Boltzmann curve
# Method: as §1, §2, §3, §4, §5
# [3] = tested on: anti-TNFα antibody; assay: Nano-ESI-MS negative control: epitope peptide mixed with an unrelated antibody; settings: 200 mM ammonium acetate pH 6.7, peptide:antibody 13:1
# Method: Negative controls were investigated to confirm specificity of in-solution complex formations. […] To further rule out non-specific interactions for epitope peptide P11 or epitope peptide P21, either of them was separately mixed with an unrelated anti-TNFα antibody (Figures S46 and S47).
# The anti-TNFα antibody stock solution (2 µg/µL) was prepared from lyophilized antibody powder (article number: MAS: 23720, ThermoFisher Scientific) and 200 mM ammonium acetate (pH 6.7).
# as §2
# Data acquisition for ITEM-FOUR experiments was performed as described in [18] with the Synapt G2S mass spectrometer (Waters MS-Technologies, Wilmslow, UK) and with the following instrumental settings: source temperature, 40 °C; capillary voltage, 1.0–1.3 kV; sample cone voltage, 130 V; source offset voltage, 130 V; trap gas flow (argon), 8.0 mL/min; helium gas: 20 bar. […] All measurements were recorded in duplicate. […]
# [4] = pseudo thermodynamic value of gas-phase complex dissociation, extrapolated to Tamb
Sequence,in-solution immune complex formation with M7 (binding in words) [2],dx (V) [2],KD m0g# [Ø] [2],Binding Type [2],ΔCV50 (V) [2],Final (%) [2],Initial (%) [2],ΔGm0g# [2],Tamb ΔSm0g# [2],ΔHm0g# [2],Slope (%/V) [2],also measured
AEQQRIRNEREKERQ [Peptide P21],no immune complexes were detected,,,,,,,,,,,"dx (V) ([1]; Boltzmann curve parameter, peptide:antibody 13:1, averaged from two acquisitions): 5.77 V; KD m0g# [Ø] ([1]; apparent gas-phase dissociation constant, dimensionless number, extrapolated to ambient temperature): 0.92 Ø; Binding Type ([1]; class by difference of normalized product ion intensities over ΔCV): orthodox (The differences in normalized product ion intensity values were always greater than 15 percentage points); ΔCV50 (V) ([1]; collision cell voltage difference for 50% dissociation, Boltzmann fit, peptide:antibody 13:1, averaged from two acquisitions): 12.77 V; Final (%) ([1]; normalized product ion quantity at highest applied ΔCV, peptide:antibody 13:1, 200 mM ammonium acetate pH 6.7, averaged from two acquisitions): 96.29%; Initial (%) ([1]; normalized product ion quantity at lowest applied ΔCV, peptide:antibody 13:1, 200 mM ammonium acetate pH 6.7, at least 1 h RT, nano-ESI, ΔCV 0-58 V, averaged from two acquisitions): 56.91%; ΔGm0g# ([1]; pseudo thermodynamic value of gas-phase complex dissociation, Ellingham diagram read at Tamb): 0.0502 kcal/mol; Tamb ΔSm0g# [1, 4]: 17.28 kcal/mol; ΔHm0g# [1, 4]: 17.34 kcal/mol; Slope (%/V) ([1]; slope of Boltzmann curve, peptide:antibody 13:1, averaged from two acquisitions): 1.71 %/V; in-solution immune complex formation with anti-TNFα antibody [3]: No immune complex signals were observed"
"GPSIVHRKSFHHHHHH [His-tag peptide, unrelated His-tag peptide used as negative control, reference compound]",did not produce any immune complexes,,,,,,,,,,,in-solution immune complex formation with M11.7 (binding in words) ([1]; peptide:antibody 13:1): did not produce any immune complexes
LVSLKDRIERCRAER [Peptide P13],,6.55 V,0.28 Ø,orthodox (The differences in normalized product ion intensity values were always greater than 15 percentage points),23.30 V,83.40%,40.36%,0.758 kcal/mol,12.43 kcal/mol,13.18 kcal/mol,1.64 %/V,
LVSLKDRIERRGAER [Peptide P15],,6.09 V,,"unorthodox (Differences in normalized product ion intensities were less than 15 percentage points, but greater than 5 percentage points)",24.89 V,84.98%,70.69%,,,,0.59 %/V,
LVSLKDRIERRPAER [Peptide P16],,5.05 V,0.48 Ø,orthodox (The differences in normalized product ion intensity values were always greater than 15 percentage points),15.83 V,96.90%,55.34%,0.44 kcal/mol,20.02 kcal/mol,20.46 kcal/mol,2.06 %/V,
LVSLKDRIERRQAER [Peptide P17],,6.46 V,0.62 Ø,orthodox (The differences in normalized product ion intensity values were always greater than 15 percentage points),24.61 V,82.69%,56.18%,0.272 kcal/mol,8.824 kcal/mol,9.097 kcal/mol,1.03 %/V,
LVSLKDRIERRRAER [Peptide P11],,6.69 V,0.59 Ø,orthodox (The differences in normalized product ion intensity values were always greater than 15 percentage points),25.27 V,84.36%,56.43%,0.306 kcal/mol,9.312 kcal/mol,9.62 kcal/mol,1.04 %/V,in-solution immune complex formation with M11.7 (binding in words) ([1]; peptide:antibody 13:1): no immune complexes were detected; in-solution immune complex formation with anti-TNFα antibody [3]: No immune complex signals were observed
LVSLKDRIERRWAER [Peptide P14],,4.33 V,0.28 Ø,orthodox (The differences in normalized product ion intensity values were always greater than 15 percentage points),18.02 V,93.86%,54.37%,0.748 kcal/mol,21.26 kcal/mol,22.01 kcal/mol,2.28 %/V,
LVSLKDRIKRRRAER [Peptide P12],no immune complex had formed in solution,,,non-binding (The differences in normalized product intensity values were less than 5 percentage points),,92.28%,89.38%,,,,,in-solution immune complex formation with M7 (binding in words) ([2]; listed as E138K): disrupted binding
